Tests used:
BRDT-BD1 = BRDT-BD1 (Homo sapiens (Human), UniProt Q58F21); test: AlphaScreen bromodomain proximity assay (competition with biotinylated (+)-JQ1), BRDT-BD1; format: binding; settings: NE: no effect at 10 μM
BRDT-BD2 = BRDT-BD2 (Homo sapiens (Human), UniProt Q58F21); test: AlphaScreen bromodomain proximity assay (competition with biotinylated (+)-JQ1), BRDT-BD2; format: binding

Row | Compound | IC50 (BRDT-BD1) [nM] | IC50 (BRDT-BD2) [nM]
1 | Cc1cc(N)ccc1-c1nn(C)c2ccc(-c3cnc(C(F)(F)F)nc3)cc12 [compound 77, 3-Methyl-4-(1-methyl-5-(2-(trifluoromethyl)pyrimidin-5-yl)-1H-indazol-3-yl)aniline] | > 10000 | 3630
2 | CNC(=O)c1ccc(C(=O)Nc2cc(NC(=O)c3ccc4c(c3)c(-c3ccc(OC)cc3)nn4C)ccc2C)cc1 [compound 11] | > 10000 | 521
3 | CNC(=O)c1ccc2c(c1)c(-c1ccc(N)cc1C)nn2C [compound 55, 3-(4-Amino-2-methylphenyl)-N,1-dimethyl-1H-indazole-5-carboxamide] | > 10000 | 988
4 | COc1ccc(NC(=O)c2ccc3c(c2)c(-c2ccc(N)cc2C)nn3C)cc1NC(=O)c1ccccc1 [compound 23, 3-(4-Amino-2-methylphenyl)-N-(3-benzamido-4-methoxyphenyl)-1-methyl-1H-indazole-5-carboxamide] | > 10000 | 35
5 | CC(=O)Nc1cc(NC(=O)c2ccc3c(c2)c(-c2ccc(N)nc2)nn3C(C)C)ccc1C [compound 19, N-(3-Acetamido-4-methylphenyl)-3-(6-aminopyridin-3-yl)-1-isopropyl-1H-indazole-5-carboxamide] | > 10000 | 253
6 | Cc1cc(N)ccc1-c1nn(C)c2ccc(C(=O)Nc3ccccc3)cc12 [compound 25, 3-(4-Amino-2-methylphenyl)-1-methyl-N-phenyl-1H-indazole-5-carboxamide] | > 10000 | 90
7 | Cc1cc(N)ccc1-c1nn(C)c2ccc(C(=O)Nc3ccc(F)cc3)cc12 [compound 63, 3-(4-Amino-2-methylphenyl)-N-(4-fluorophenyl)-1-methyl-1H-indazole-5-carboxamide] |  | 101
8 | CNC(=O)c1ccc(C(=O)Nc2cc(NC(=O)c3ccc4c(c3)c(-c3ccc(Cl)cc3)nn4C)ccc2C)cc1 [compound 40, N^1-(5-(3-(4-Chlorophenyl)-1-methyl-1H-indazole-5-carboxamido)-2-methylphenyl)-N^4-methylterephthalamide] |  | 106
9 | COc1ccc(NC(=O)c2ccc3c(c2)c(-c2cc4ccccc4n2C)nn3C)cc1NC(C)=O [compound 74, N-(3-Acetamido-4-methoxyphenyl)-1-methyl-3-(1-methyl-1H-indol-2-yl)-1H-indazole-5-carboxamide] |  | 32
10 | COc1ccc(NC(=O)c2ccc3nn(C)c(-c4ccc(N)cc4C)c3c2)cc1 [compound 27, 3-(4-Amino-2-methylphenyl)-N-(4-methoxyphenyl)-2-methyl-2H-indazole-5-carboxamide] | > 10000 | 17200
11 | CNC(=O)c1ccc(C(=O)Nc2cc(NC(=O)c3ccc4c(c3)c(-c3ccc(OCc5ccccc5)cc3)nn4C)ccc2C)cc1 [compound 37, N^1-(5-(3-(4-(Benzyloxy)phenyl)-1-methyl-1H-indazole-5-carboxamido)-2-methylphenyl)-N^4-methylterephthalamide] |  | > 10000
12 | Cc1ccc(NC(=O)c2ccc3c(c2)c(-c2ccc(N)nc2)nn3C)cc1NC(=O)N1CCNCC1 [compound 46, 3-(6-Aminopyridin-3-yl)-1-methyl-N-(4-methyl-3-(piperazine-1-carboxamido)phenyl)-1H-indazole-5-carboxamide] |  | 79
13 | CN1CCC(NC(=O)c2ccc3c(c2)c(-c2ccc(N)nc2)nn3C)CC1 [compound 50, 3-(6-Aminopyridin-3-yl)-1-methyl-N-(1-methylpiperidin-4-yl)-1H-indazole-5-carboxamide] |  | > 200
14 | Cn1nc(-c2ccc(N)nc2)c2cc(C(=O)Nc3cccc(C(=O)O)c3)ccc21 [compound 54, 3-(3-(6-Aminopyridin-3-yl)-1-methyl-1H-indazole-5-carboxamido)benzoic acid] |  | 381
15 | COc1ccc(NC(=O)c2ccc3c(c2)c(-c2cc4ccccc4n2C)nn3C)c(Cl)c1 [compound 36, N-(2-Chloro-4-methoxyphenyl)-1-methyl-3-(1-methyl-1H-indol-2-yl)-1H-indazole-5-carboxamide] |  | > 1250
16 | CC(=O)Nc1cc(NC(=O)c2ccc3c(c2)c(-c2ccc(Cl)cc2Cl)nn3C)ccc1C [compound 42, N-(3-Acetamido-4-methylphenyl)-3-(2,4-dichlorophenyl)-1-methyl-1H-indazole-5-carboxamide] |  | 320
17 | CNC(=O)c1ccc(C(=O)Nc2cc(NC(=O)c3ccc4c(c3)c(-c3ccc(N)nc3C)nn4C)ccc2C)cc1 [compound 14, N^1-(5-(3-(6-Amino-2-methylpyridin-3-yl)-1-methyl-1H-indazole-5-carboxamido)-2-methylphenyl)-N^4-methylterephthalamide] |  | 94
18 | COc1ccc(NC(=O)c2ccc3c(c2)c(-c2cc4ccccc4n2C)nn3C)c(OC)c1 [compound 34, N-(2,4-Dimethoxyphenyl)-1-methyl-3-(1-methyl-1H-indol-2-yl)-1H-indazole-5-carboxamide] |  | 926
19 | Cn1nc(-c2ccc(N)nc2)c2cc(C(=O)NC3CCN(C(=O)OC(C)(C)C)CC3)ccc21 [compound 52, tert-Butyl 4-(3-(6-aminopyridin-3-yl)-1-methyl-1H-indazole-5-carboxamido)piperidine-1-carboxylate] |  | > 200

Row | Compound | IC50 (BRDT-BD1) [nM] | IC50 (BRDT-BD2) [nM]
20 | CNC(=O)[C@H]1CC[C@H](C(=O)Nc2cc(NC(=O)c3ccc4c(c3)c(-c3ccc(N)nc3)nn4C)ccc2C)CC1 [compound 49] |  | 68
21 | Cc1ccc(NC(=O)c2ccc3c(c2)c(-c2ccc(N)nc2)nn3C)cc1NC(=O)C1CCCCC1 [compound 47, 3-(6-Aminopyridin-3-yl)-N-(3-(cyclohexanecarboxamido)-4-methylphenyl)-1-methyl-1H-indazole-5-carboxamide] |  | 113
22 | Cc1cc(N)ccc1-c1nn(C)c2ccc(C(=O)Nc3ccc(Cl)cc3)cc12 [compound 64, 3-(4-Amino-2-methylphenyl)-N-(4-chlorophenyl)-1-methyl-1H-indazole-5-carboxamide] |  | 209
23 | COc1ccc(NC(=O)c2ccc3c(c2)c(-c2cc4ccccc4n2C)nn3C)c(C(N)=O)c1 [compound 75, N-(2-Carbamoyl-4-methoxyphenyl)-1-methyl-3-(1-methyl-1H-indol-2-yl)-1H-indazole-5-carboxamide] |  | 4370
24 | Cc1ccc(NC(=O)c2ccc3c(c2)c(-c2ccc(N)nc2)nn3C)cc1NC(=O)[C@H]1CC[C@@H](N)CC1 [compound 48, N-(3-((1s,4s)-4-Aminocyclohexane-1-carboxamido)-4-methylphenyl)-3-(6-aminopyridin-3-yl)-1-methyl-1H-indazole-5-carboxamide] |  | 51
25 | CC(=O)N1CCC(NC(=O)c2ccc3c(c2)c(-c2ccc(N)nc2)nn3C)CC1 [compound 51, N-(1-Acetylpiperidin-4-yl)-3-(6-aminopyridin-3-yl)-1-methyl-1H-indazole-5-carboxamide] |  | > 200
26 | CNC(=O)c1ccc(C(=O)Nc2cc(NC(=O)c3ccc4c(c3)c(-c3ccc(N5CCNCC5)nc3)nn4C)ccc2C)cc1 [compound 38] |  | > 10000
27 | COc1ccc(NC(=O)c2ccc3c(c2)c(-c2cc4ccccc4n2C)nn3C)c(C)c1 [compound 33, N-(4-Methoxy-2-methylphenyl)-1-methyl-3-(1-methyl-1H-indol-2-yl)-1H-indazole-5-carboxamide] |  | 183
28 | Cc1ccc(NC(=O)c2ccc3c(c2)c(-c2ccc(N)cc2C)nn3C)cc1NS(C)(=O)=O [compound 58, 3-(4-Amino-2-methylphenyl)-1-methyl-N-(4-methyl-3-(methylsulfonamido)phenyl)-1H-indazole-5-carboxamide] |  | 67
29 | COc1ccc(NC(=O)c2ccc3c(c2)c(-c2cc4ccccc4n2C)nn3C)cc1C(F)(F)F [compound 70, N-(4-Methoxy-3-(trifluoromethyl)phenyl)-1-methyl-3-(1-methyl-1H-indol-2-yl)-1H-indazole-5-carboxamide] |  | 626
30 | CC(=O)Nc1cc(NC(=O)c2ccc3c(c2)c(-c2ccc(Cl)cc2C)nn3C)ccc1C [compound 41, N-(3-Acetamido-4-methylphenyl)-3-(4-chloro-2-methylphenyl)-1-methyl-1H-indazole-5-carboxamide] |  | 58
31 | COc1ccc(NC(=O)c2ccc3c(c2)c(-c2cc4ccccc4n2C)nn3C)cc1I [compound 69, N-(3-Iodo-4-methoxyphenyl)-1-methyl-3-(1-methyl-1H-indol-2-yl)-1H-indazole-5-carboxamide] |  | 502
32 | Cn1nc(-c2ccc(N)nc2)c2cc(C(=O)NC3CCNCC3)ccc21 [compound 53, 3-(6-Aminopyridin-3-yl)-1-methyl-N-(piperidin-4-yl)-1H-indazole-5-carboxamide] |  | > 200
33 | CNC(=O)c1ccc(C(=O)Nc2cc(NC(=O)c3ccc4c(c3)c(-c3ccc(N5CCOCC5)nc3)nn4C)ccc2C)cc1 [compound 39, N^1-Methyl-N^4-(2-methyl-5-(1-methyl-3-(6-morpholinopyridin-3-yl)-1H-indazole-5-carboxamido)phenyl)terephthalamide] |  | > 10000
34 | CNC(=O)c1cccc(NC(=O)c2ccc3c(c2)c(-c2ccc(N)cc2C)nn3C)c1 [compound 57, 3-(4-Amino-2-methylphenyl)-1-methyl-N-(3-(methylcarbamoyl)phenyl)-1H-indazole-5-carboxamide] |  | 29
35 | Cc1cc(N)ccc1-c1nn(C)c2ccc(C(=O)Nc3ccc(C(F)(F)F)cc3)cc12 [compound 61, 3-(4-Amino-2-methylphenyl)-1-methyl-N-(4-(trifluoromethyl)phenyl)-1H-indazole-5-carboxamide] |  | 898
36 | Cc1ccc(NC(=O)c2ccc3c(c2)c(-c2ccc(N)nc2)nn3C)cc1NC(=O)C1CCN(C)CC1 [compound 45, 3-(6-Aminopyridin-3-yl)-1-methyl-N-(4-methyl-3-(1-methylpiperidine-4-carboxamido)phenyl)-1H-indazole-5-carboxamide] |  | 58
37 | COc1ccc(NC(=O)c2ccc3c(c2)c(-c2cc4ccccc4n2C)nn3C)cc1C#N [compound 71, N-(3-Cyano-4-methoxyphenyl)-1-methyl-3-(1-methyl-1H-indol-2-yl)-1H-indazole-5-carboxamide] |  | 168
38 | Cc1ccc(NC(=O)c2ccc3c(c2)c(-c2ccc(N)cc2C)nn3C)cc1 [compound 60, 3-(4-Amino-2-methylphenyl)-1-methyl-N-(p-tolyl)-1H-indazole-5-carboxamide] |  | 91

Source: patent US20240158355A1, “BET SUBFAMILY INHIBITORS AND METHODS USING SAME” (Baylor College of Medicine, priority 2021, published 2024)
